Here are results for 63 compounds from patent publication US6518423B1, “Benzopiperidine derivatives” (Eisai Co., Ltd., priority 1996, dated 2003).

`c1ccc(-c2cn(Cc3ccc4c(c3)Nc3nccnc3S4)cn2)cc1` came in with a melting point of 216 to 218 °C.
In the case of `C/C(=C\c1ncn(Cc2ccc3c(c2)Nc2nccnc2S3)c1C)C(N)=O` it was 280 °C (dec.); in that of `C/C(=C\c1ncn(Cc2ccc3c(c2)Nc2nccnc2S3)c1C)C(=O)O`, more than 290 °C.
The value for `OCc1nccn1Cc1ccc2c(c1)Nc1nccnc1S2` was 247 to 250 °C; that for `O=C(O)c1ccc(C(O)c2nccn2Cc2ccc3c(c2)Nc2nccnc2S3)cc1` (stereo not drawn) was 240 to 241 °C.
In turn, `Cc1ncn(Cc2ccc3c(c2)Nc2nccnc2S3)c1C(C)O` (stereo not drawn) came in with a melting point of 178 to 182 °C.
`O=C(O)C1CC2(C1)C1CCCC2CN(Cc2ccc3c(c2)Nc2nccnc2S3)C1` (stereo not drawn) displayed a melting point of 98 to 101 °C.
The value for `c1cnc2ncn(Cc3ccc4c(c3)Nc3nccnc3S4)c2c1` was 265 °C (dec.); that for `c1ccn(Cc2ccc3c(c2)Nc2nccnc2S3)c1` was 197 to 198 °C; that for `OC(c1cncnc1)c1ccc2c(c1)Nc1nccnc1S2` (stereo not drawn) was 218 to 221 °C.
The value for `OC(c1ccc2c(c1)Nc1nccnc1S2)c1ncccn1` (stereo not drawn) was 105 to 107 °C; that for `CC(c1cccnc1)c1ccc2c(c1)Nc1nccnc1S2` (stereo not drawn) was 180 to 181 °C.
For `CCOC(=O)/C=C/c1cccc(C(O)c2ccc3c(c2)Nc2nccnc2S3)n1` (stereo not drawn), the melting point is 160 to 170 °C (dec.).
In the case of `O=C(O)CC1(O)C2CCCCCC1CN(Cc1ccc3c(c1)Nc1nccnc1S3)C2` (stereo not drawn) it was 217 to 218 °C (dec.); in that of `CN(C)S(=O)(=O)NCC1C2CCCC1CN(Cc1ccc3c(c1)Nc1nccnc1S3)C2` (stereo not drawn), 215 to 219 °C.
Compound `CC(C(=O)O)c1ccc(NCc2ccc3c(c2)Nc2nccnc2S3)cc1.Cl` (stereo not drawn) came in with a melting point of 228 to 233 °C.
For `O=C(NCc1ccc2c(c1)Nc1nccnc1S2)c1cccnc1`, the melting point was 243 to 245 °C (dec.).
In the case of `O=C(Nc1nccs1)c1ccc2c(c1)Nc1nccnc1S2` it was 320 to 322 °C; in that of `CN(C)c1ncnc2ncn(Cc3ccc4c(c3)Nc3nccnc3S4)c12`, 265 to 268 °C.
The value for `CN(C)c1ncnc2c1nc(C(F)(F)F)n2Cc1ccc2c(c1)Nc1nccnc1S2` was 231 to 233 °C; that for `O=c1[nH]cnc2ncn(Cc3ccc4c(c3)Nc3nccnc3S4)c12` was more than 275 °C; that for `Cc1nc2cncnc2n1Cc1ccc2c(c1)Nc1nccnc1S2` was 191 to 193 °C.
The value for `NCCN1CCN(c2ncnc3c2ncn3Cc2ccc3c(c2)Nc2nccnc2S3)CC1` was 226 to 229 °C.
Regarding `CCc1ncnc2ncn(Cc3ccc4c(c3)Nc3nccnc3S4)c12`, the melting point was more than 275 °C.
In the case of `N/C(Cc1ccc2c(c1)Nc1nccnc1S2)=N\S(=O)(=O)c1ccccc1` it was 206 to 207 °C.
Take `Cl.c1ccc(CN2CCCN=C2Cc2ccc3c(c2)Nc2nccnc2S3)cc1`: the melting point was 153 to 155 °C (dec.).
`Cl.OC1CN=C(Cc2ccc3c(c2)Nc2nccnc2S3)NC1` (stereo not drawn) returned a melting point of 156 to 163 °C.
For the compound `N#C/N=C(/Cc1ccc2c(c1)Nc1nccnc1S2)NCc1ccccn1`, the melting point lay within 195 to 196 °C.
The value for `N#CN=C(Cc1ccc2c(c1)Nc1nccnc1S2)NCc1ccc(S(N)(=O)=O)cc1` was 241 to 245 °C; that for `COC(=O)CC1C2CCCC1CN(Cc1ccc3c(c1)N(C(=O)OC)c1nccnc1S3)C2` (stereo not drawn) was 106 to 108 °C; that for `COC(=O)CC1C2CCCC1CN(Cc1ccc3c(c1)N(C(C)=O)c1nccnc1S3)C2` (stereo not drawn) was 160 to 162 °C.
Take `O=C1CCC2(CCN(Cc3ccc4c(c3)Nc3nccnc3S4)CC2)O1`: the melting point fell in the range of 199 to 203 °C.
The value for `NC(=O)C1CCCN1Cc1ccc2c(c1)Nc1nccnc1S2` (stereo not drawn) was 194 to 197 °C.
`CS(=O)(=O)N1CCN(Cc2ccc3c(c2)Nc2nccnc2S3)CC1`: the melting point is 221 to 222 °C.
`CN(C)S(=O)(=O)NC1CCN(Cc2cnc3c(c2)Nc2nccnc2S3)CC1` showed a melting point of 205 to 210 °C.
`O=C(CCCC1CCN(Cc2ccc3c(c2)Nc2nccnc2S3)CC1)Nc1nnn[nH]1` registered a melting point of 190 to 191 °C.
In the case of `CN1C2CCC1CC(NC(=O)CC1CC3(CCN(Cc4ccc5c(c4)Nc4nccnc4S5)CC3)C1)C2` (stereo not drawn) it was 181 to 184 °C; in that of `CN(C)c1c(N2CCN(Cc3ccc4c(c3)Nc3nccnc3S4)CC2)c(=O)c1=O`, 296 to 300 °C (dec.).
In the case of `CS(=O)(=O)N1CCCN(Cc2ccc3c(c2)Nc2nccnc2S3)CC1` it was 158 to 160 °C; in that of `O=S(=O)(CCC1CCN(Cc2ccc3c(c2)Nc2nccnc2S3)CC1)N1CCOCC1`, 193 to 194 °C.
The value for `O=C(O)CCN1CCC(NCc2ccc3c(c2)Nc2nccnc2S3)CC1` was 130 to 134 °C; that for `O=C(O)/C=C1\CCCN(Cc2ccc3c(c2)Nc2nccnc2S3)C1` was 200 to 203 °C.
Compound `O=C(O)COc1ccc(C2CCN(Cc3ccc4c(c3)Nc3nccnc3S4)CC2)cc1` displayed a melting point of 258 to 262 °C.
In turn, `O=C(O)Cc1ccccc1C1CCN(Cc2ccc3c(c2)Nc2nccnc2S3)CC1` had a melting point of 152 to 154 °C.
In the case of `CC(CCC1(CO)CCN(Cc2ccc3c(c2)Nc2nccnc2S3)CC1)C(=O)O` (stereo not drawn) it was 105 to 110 °C; in that of `O=C(O)C(F)=C1CCN(Cc2ccc3c(c2)Nc2nccnc2S3)CC1`, 167 to 173 °C; in that of `COc1cc(C2CCN(Cc3ccc4c(c3)Nc3nccnc3S4)CC2)ccc1CC(=O)O`, 171 to 177 °C (dec.).
In the case of `O=C(O)C=C1CCN(Cc2ccc3c(c2)Nc2nccnc2S3)CC1` it was 214 to 216 °C; in that of `O=C(O)CC1=CCN(Cc2ccc3c(c2)Nc2nccnc2S3)CC1`, 124 to 128 °C.
In the case of `O=C(O)C1(c2ccccc2)CCN(Cc2ccc3c(c2)Nc2nccnc2S3)CC1` it was more than 297 °C.
`CN1c2ccccc2Nc2nccnc21` returned a melting point of 229 to 231 °C.
In the case of `COCN1c2ccccc2Nc2nccnc21` it was 185 to 188 °C.
`CN1c2ccc(/C=C/C(=O)O)cc2Nc2nccnc21` registered a melting point of 275 °C.
In the case of `CN1c2ccc(C(O)c3nccs3)cc2Nc2nccnc21` (stereo not drawn) it was 203 to 204 °C.
For `CN1c2ccc(C(=O)c3ccccn3)cc2Nc2nccnc21`, the melting point lay in the range of 261 to 262 °C.
The value for `CN1c2ccc(CNC(N)=O)cc2Nc2nccnc21` was more than 275 °C; that for `CN1c2ccc(C#CC(=O)O)cc2Nc2nccnc21` was more than 275 °C; that for `c1cnc(NCc2ccc3c(c2)Nc2nccnc2S3)nc1` was 232 to 235 °C.
Compound `c1ccc(CCNCc2ccc3c(c2)Nc2nccnc2S3)nc1` returned a melting point of 179 to 182 °C.
The value for `Cc1cc(C)nc(NCc2ccc3c(c2)Nc2nccnc2S3)c1` was 162 to 165 °C.
In turn, `CCc1cc(NCc2ccc3c(c2)Nc2nccnc2S3)ccn1` showed a melting point of 148 to 152 °C.
In the case of `CCOC(=O)COc1ccc(NCc2ccc3c(c2)Nc2nccnc2S3)cn1` it was 230 to 235 °C.
The value for `CCOC(=O)CCCCCOc1ccc(NCc2ccc3c(c2)Nc2nccnc2S3)cn1` was 105 to 108 °C.

What is called melting point is the temperature, or range, at which the solid turns liquid.
